Test results from US6942966B1, “Methods for processing chemical compounds having reactive functional groups” (ISIS Pharmaceuticals, Inc., priority 1995, dated 2005).

Target: T1, human type II PLA2 (Homo sapiens, UniProt P14555)
T1 construct: made in house; host or cells: baculovirus system
T1 sequence (P14555 21-144): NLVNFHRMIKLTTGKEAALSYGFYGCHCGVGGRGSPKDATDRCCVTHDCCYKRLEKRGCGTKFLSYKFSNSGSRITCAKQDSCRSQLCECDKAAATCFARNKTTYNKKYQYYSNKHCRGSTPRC
Assay: E. coli PLA2 assay (3H-oleic acid labeled E. coli as substrate)
Format: biochemical
Conditions: compounds 33 and 34 assayed as a mixture at 100 μM, 50 μM, and 10 μM (final concentration)
Excerpt: After each round of synthesis as described in the above examples, the resulting pools of compounds are screened for inhibition of human type II PLA2 enzymatic activity. The assay is effected at the conclusion of each round of synthesis to identify the wining pool from that round of synthesis. Concurrently, the libraries additionally can be screened in other in vitro assays to determine further mechanisms of inhibition.
The pools of the macrocyclic libraries are screened for inhibition of PLA2 in the assay using E. coli labeled with ^3H-oleic acid (Franson et al., J. Lipid Res. 1974, 15, 380; and Davidson et al., J. Biol. Chem. 1987, 262, 1698) as the substrate. Type II PLA2 (originally isolated from synovial fluid), expressed in a baculovirus system and partially purified, serves as a source of the enzyme. […] 165 μl of each supernate is then put into a scintillation vial containing 6 ml of scintillant (Scintiverse) and cpms are measured in a Beckman Liquid Scintillation Counter. […]
The compounds were assayed as a mixture at 100 μM, 50 μM, and 10 μM (final concentration). […] Duplicate assay values were averaged, background (no compound, no PLA2) was subtracted and the percentage of the positive control (no compound) was calculated.

Row | Substance | inhibitory activity in E. coli PLA2 assay
1 | 1,11,18,28-tetracarboxy-2,10,19,27-tetraaza-7,24-bis-(tosyl)aza-3,20-dioxa-[11.11]pyridinophane [compound 34] | showed inhibitory activity
2 | 1,11,18,28-tetracarboxy-2,10,19,27-tetraaza-7,22-bis-(tosyl)aza-3,26-dioxa-[11.11]pyridinophane [compound 33] | showed inhibitory activity
